PubChem BioAssay (NCI)
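Five concentrations, 48 hours, 96-well plates. Here, GI50 denotes the concentration required for 50% inhibition of growth. TGI: concentration producing complete growth inhibition.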

Columns and labels:
Experiment in all cases: NCI-60 cell line screen, 48 h; in the data active = GI50 below about 0.43 µM; inactive = the rest
NCI-H460 lung = tested on: NCI-H460 lung
786-0 renal = tested on: 786-0 renal
OVCAR-5 ovarian = tested on: OVCAR-5 ovarian
MCF7 breast = tested on: MCF7 breast
SF-539 CNS = tested on: SF-539 CNS
UACC-257 melanoma = tested on: UACC-257 melanoma
HL-60(TB) leukemia = tested on: HL-60(TB) leukemia
SF-268 CNS = tested on: SF-268 CNS
HT29 colon = tested on: HT29 colon
SK-MEL-2 melanoma = tested on: SK-MEL-2 melanoma
NCI-H23 lung = tested on: NCI-H23 lung
PC-3 prostate = tested on: PC-3 prostate
HCC-2998 colon = tested on: HCC-2998 colon
HOP-62 NSCLC = tested on: HOP-62 NSCLC
T-47D breast = tested on: T-47D breast
HOP-92 NSCLC = tested on: HOP-92 NSCLC
NCI/ADR-RES ovarian = tested on: NCI/ADR-RES ovarian
EKVX NSCLC = tested on: EKVX NSCLC
RPMI-8226 leukemia = tested on: RPMI-8226 leukemia
SW-620 colon = tested on: SW-620 colon
HCT-116 colon = tested on: HCT-116 colon
KM12 colon = tested on: KM12 colon
U251 CNS = tested on: U251 CNS
SK-MEL-5 melanoma = tested on: SK-MEL-5 melanoma
SK-OV-3 ovarian = tested on: SK-OV-3 ovarian
MDA-MB-231 breast = tested on: MDA-MB-231 breast
BT-549 breast = tested on: BT-549 breast
IGROV1 ovarian = tested on: IGROV1 ovarian
SR leukemia = tested on: SR leukemia
A498 renal = tested on: A498 renal
ACHN renal = tested on: ACHN renal
OVCAR-8 ovarian = tested on: OVCAR-8 ovarian
A549 NSCLC = tested on: A549 NSCLC
SNB-75 CNS = tested on: SNB-75 CNS
DU-145 prostate = tested on: DU-145 prostate
UACC-62 melanoma = tested on: UACC-62 melanoma
MDA-MB-435 = tested on: MDA-MB-435
CAKI-1 renal = tested on: CAKI-1 renal
UO-31 renal = tested on: UO-31 renal
NCI-H522 lung = tested on: NCI-H522 lung
COLO 205 colon = tested on: COLO 205 colon
LOX IMVI melanoma = tested on: LOX IMVI melanoma
OVCAR-4 ovarian = tested on: OVCAR-4 ovarian
HCT-15 colon = tested on: HCT-15 colon
MOLT-4 leukemia = tested on: MOLT-4 leukemia
M14 melanoma = tested on: M14 melanoma
K-562 leukemia = tested on: K-562 leukemia
SNB-19 CNS = tested on: SNB-19 CNS
SN12C renal = tested on: SN12C renal
OVCAR-3 ovarian = tested on: OVCAR-3 ovarian
TK-10 renal = tested on: TK-10 renal
NCI-H226 lung = tested on: NCI-H226 lung
SF-295 CNS = tested on: SF-295 CNS
SK-MEL-28 melanoma = tested on: SK-MEL-28 melanoma
HS 578T breast = tested on: HS 578T breast
CCRF-CEM leukemia = tested on: CCRF-CEM leukemia

CS(=O)(=O)O[C@H]1C(=O)N(c2cc3c4ccccc4ccc3c3ccccc23)[C@@H]1c1ccccc1
0.83 µM: TGI (CAKI-1 renal)
> 100 µM: TGI (NCI-H460 lung) | TGI (MCF7 breast) | TGI (UACC-257 melanoma) | TGI (HL-60(TB) leukemia) | TGI (SF-268 CNS) | TGI (HT29 colon) | TGI (SK-MEL-2 melanoma) | TGI (NCI-H23 lung) | TGI (PC-3 prostate) | TGI (HOP-62 NSCLC) | TGI (T-47D breast) | TGI (HOP-92 NSCLC) | TGI (EKVX NSCLC) | TGI (SW-620 colon) | TGI (HCT-116 colon) | TGI (KM12 colon) | TGI (U251 CNS) | TGI (SK-OV-3 ovarian) | TGI (MDA-MB-231 breast) | TGI (BT-549 breast) | TGI (IGROV1 ovarian) | TGI (SR leukemia) | TGI (A498 renal) | TGI (ACHN renal) | TGI (OVCAR-8 ovarian) | TGI (A549 NSCLC) | TGI (SNB-75 CNS) | TGI (DU-145 prostate) | TGI (UACC-62 melanoma) | TGI (UO-31 renal) | TGI (COLO 205 colon) | TGI (LOX IMVI melanoma) | TGI (OVCAR-4 ovarian) | TGI (HCT-15 colon) | TGI (MOLT-4 leukemia) | TGI (M14 melanoma) | TGI (K-562 leukemia) | TGI (SNB-19 CNS) | TGI (SN12C renal) | TGI (NCI-H226 lung) | TGI (SK-MEL-28 melanoma)
0.4 µM: TGI (SF-295 CNS)
5.64 µM: TGI (HCC-2998 colon)
> 23.5 µM: TGI (RPMI-8226 leukemia)
5.65 µM: TGI (NCI-H522 lung)
0.0923 µM: TGI (MDA-MB-435)
0.94 µM: TGI (NCI/ADR-RES ovarian)
0.278 µM: TGI (OVCAR-3 ovarian)
> 86.9 µM: TGI (TK-10 renal)
inactive: GI50 (NCI-H460 lung) 1.59 µM | GI50 (OVCAR-5 ovarian) 0.574 µM | GI50 (MCF7 breast) 4.33 µM | GI50 (SF-539 CNS) 0.71 µM | GI50 (UACC-257 melanoma) > 38.1 µM | GI50 (HL-60(TB) leukemia) 0.532 µM | GI50 (SF-268 CNS) 0.588 µM | GI50 (HT29 colon) 0.474 µM | GI50 (NCI-H23 lung) 0.753 µM | GI50 (PC-3 prostate) 0.561 µM | GI50 (HCC-2998 colon) 0.439 µM | GI50 (T-47D breast) > 100 µM | GI50 (RPMI-8226 leukemia) 0.844 µM | GI50 (SW-620 colon) 0.874 µM | GI50 (U251 CNS) 0.457 µM | GI50 (SK-MEL-5 melanoma) 0.766 µM | GI50 (SK-OV-3 ovarian) 2.31 µM | GI50 (MDA-MB-231 breast) 0.836 µM | GI50 (IGROV1 ovarian) > 100 µM | GI50 (A498 renal) 0.545 µM | GI50 (A549 NSCLC) 2.18 µM | GI50 (SNB-75 CNS) 0.656 µM | GI50 (DU-145 prostate) 0.819 µM | GI50 (UO-31 renal) 3.44 µM | GI50 (NCI-H522 lung) 1.11 µM | GI50 (COLO 205 colon) 0.693 µM | GI50 (LOX IMVI melanoma) 0.526 µM | GI50 (OVCAR-4 ovarian) > 100 µM | GI50 (MOLT-4 leukemia) > 100 µM | GI50 (M14 melanoma) 0.809 µM | GI50 (K-562 leukemia) 0.731 µM | GI50 (SN12C renal) 0.567 µM | GI50 (TK-10 renal) 0.616 µM | GI50 (NCI-H226 lung) > 100 µM | GI50 (SK-MEL-28 melanoma) > 100 µM
active: GI50 (786-0 renal) 0.287 µM | GI50 (HOP-62 NSCLC) 0.388 µM | GI50 (NCI/ADR-RES ovarian) 0.206 µM | GI50 (EKVX NSCLC) 0.342 µM | GI50 (HCT-116 colon) 0.313 µM | GI50 (KM12 colon) 0.216 µM | GI50 (BT-549 breast) 0.17 µM | GI50 (SR leukemia) 0.355 µM | GI50 (ACHN renal) 0.332 µM | GI50 (UACC-62 melanoma) 0.24 µM | GI50 (MDA-MB-435) 0.0232 µM | GI50 (CAKI-1 renal) 0.0747 µM | GI50 (HCT-15 colon) 0.408 µM | GI50 (OVCAR-3 ovarian) 0.0617 µM | GI50 (SF-295 CNS) 0.0995 µM
1.76 µM: TGI (SF-539 CNS)
> 33.5 µM: TGI (SK-MEL-5 melanoma)

CC(C)=CCC/C(C)=C/CC/C(C)=C/CC/C(C)=C/CSC[C@H](NC(=O)CCCCCN1CCN(C)CC1)C(=O)NC1CCCCC1
15.5 µM: TGI (OVCAR-4 ovarian)
5.71 µM: TGI (SNB-19 CNS)
5.13 µM: TGI (RPMI-8226 leukemia)
3.49 µM: TGI (PC-3 prostate)
14.5 µM: TGI (SK-MEL-2 melanoma)
11.3 µM: TGI (HOP-92 NSCLC)
30.5 µM: TGI (TK-10 renal)
98.2 µM: TGI (NCI-H226 lung)
4.93 µM: TGI (UACC-257 melanoma)
7.76 µM: TGI (IGROV1 ovarian)
17.5 µM: TGI (SF-268 CNS)
6.49 µM: TGI (OVCAR-3 ovarian)
3.81 µM: TGI (SW-620 colon)
3.84 µM: TGI (MDA-MB-231 breast)
7.02 µM: TGI (T-47D breast)
3.52 µM: TGI (U251 CNS)
17.4 µM: TGI (HS 578T breast)
32.5 µM: TGI (SK-OV-3 ovarian)
4.07 µM: TGI (DU-145 prostate)
3.51 µM: TGI (SF-295 CNS)
23.4 µM: TGI (NCI-H23 lung)
3.07 µM: TGI (MDA-MB-435)
3.43 µM: TGI (SK-MEL-28 melanoma)
34.2 µM: TGI (A498 renal)
14 µM: TGI (A549 NSCLC)
32.2 µM: TGI (HOP-62 NSCLC)
33.8 µM: TGI (NCI/ADR-RES ovarian)
7.67 µM: TGI (CCRF-CEM leukemia)
4.01 µM: TGI (KM12 colon)
inactive: GI50 (NCI-H460 lung) 1.94 µM | GI50 (OVCAR-5 ovarian) 2.05 µM | GI50 (UACC-257 melanoma) 2.09 µM | GI50 (SF-268 CNS) 4.05 µM | GI50 (HS 578T breast) 3.54 µM | GI50 (SK-MEL-2 melanoma) 4.11 µM | GI50 (NCI-H23 lung) 4.73 µM | GI50 (PC-3 prostate) 1.76 µM | GI50 (CCRF-CEM leukemia) 2.51 µM | GI50 (HOP-62 NSCLC) 8.63 µM | GI50 (T-47D breast) 2.31 µM | GI50 (HOP-92 NSCLC) 2.13 µM | GI50 (NCI/ADR-RES ovarian) 8.98 µM | GI50 (RPMI-8226 leukemia) 2.14 µM | GI50 (SW-620 colon) 1.91 µM | GI50 (KM12 colon) 2.03 µM | GI50 (U251 CNS) 1.81 µM | GI50 (SK-OV-3 ovarian) 13 µM | GI50 (MDA-MB-231 breast) 2 µM | GI50 (IGROV1 ovarian) 2.91 µM | GI50 (SR leukemia) 2.44 µM | GI50 (A498 renal) 14.4 µM | GI50 (OVCAR-8 ovarian) 3.4 µM | GI50 (A549 NSCLC) 3.36 µM | GI50 (SNB-75 CNS) 4.16 µM | GI50 (DU-145 prostate) 2.08 µM | GI50 (MDA-MB-435) 1.66 µM | GI50 (CAKI-1 renal) 3.08 µM | GI50 (OVCAR-4 ovarian) 3.51 µM | GI50 (HCT-15 colon) 1.78 µM | GI50 (MOLT-4 leukemia) 3.17 µM | GI50 (SNB-19 CNS) 2.27 µM | GI50 (SN12C renal) 2.36 µM | GI50 (OVCAR-3 ovarian) 2.66 µM | GI50 (TK-10 renal) 11.7 µM | GI50 (NCI-H226 lung) 24 µM | GI50 (SF-295 CNS) 1.74 µM | GI50 (SK-MEL-28 melanoma) 1.79 µM
6.27 µM: TGI (SR leukemia)
14.3 µM: TGI (OVCAR-8 ovarian)
6.19 µM: TGI (SN12C renal)
3.73 µM: TGI (NCI-H460 lung)
11 µM: TGI (CAKI-1 renal)
3.47 µM: TGI (HCT-15 colon)
5.25 µM: TGI (OVCAR-5 ovarian)
21 µM: TGI (SNB-75 CNS)
8.44 µM: TGI (MOLT-4 leukemia)
